Here are results for two compounds from article PMC11110727, “Exploiting thiol-functionalized benzosiloxaboroles for achieving diverse substitution patterns – synthesis, characterization and biological evaluation of promising antibacterial agents” (RSC Medicinal Chemistry, 2024).

Series [1] is described as follows: Determination of acidity constants (pKa) by potentiometric titration. The method, then: 0.1 M NaOH in H2O/MeOH (1 : 1 v/v).
The acidity constants of benzosiloxaboroles 1e, 2e, 6, 20 and 22–24 were determined by standard pH titration with 0.05 M aq. NaOH. The measurements were performed using a thermostated (25.0 °C) glass vessel equipped with a magnetic stirrer and a 10 mL burette. Prior to the measurement, the pH glass electrode was calibrated using borax and phosphate buffers. A solution of the analyzed compound (ca. 20–40 mg) in a mixture of MeOH/H2O (v/v 1 : 1, 30 mL) was titrated until the pH of the solution exceeded the value of 12.0.

The subject of series [2] is S. aureus NMI 1576 K MRSA. In words: Antibacterial activity against clinical MRSA: MIC/MBC. Format: cell-based. Conditions: Staphylococcus aureus. The method in brief:
(§1)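 MIC values come from CLSI/EUCAST-based dilution testing, with cidal concentrations (MBC or MFC) assessed by CLSI procedures and zones by disc diffusion. Compounds were prepared in DMSO.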

The test system of series [3] is S. aureus NMI 1712 K MRSA. Described as above. Format: cell-based. Particulars: Staphylococcus aureus. A digest of the protocol:
as §1

Series [4] concerns S. aureus NMI 2541 K MRSA. The series is described as above. Format: cell-based. Particulars: Staphylococcus aureus. The method in brief: as §1
Series [5] has as its system S. aureus NMI 664 K MRSA. Described as above. Format: cell-based. Conditions: Staphylococcus aureus. A digest of the protocol: as §1
The test system of series [6] is Staphylococcus aureus, MSSA and MRSA strains. The series is described as follows: Antibacterial activity against S. aureus strains (text summaries). Conditions: for Eagle effect (paradoxical growth) during MBC determination: S. aureus ATCC 6538P and five MRSA clinical strains; for MIC: Staphylococcus aureus. Format: cell-based. The method, then:
(§2) Direct antimicrobial activity was determined against the following standard strains: (1) Gram-positive cocci: methicillin-sensitive Staphylococcus aureus ATCC 6538P (MSSA), methicillin-resistant S. aureus subsp. aureus ATCC 43300 (MRSA), S. epidermidis ATCC 12228, Enterococcus faecium ATCC 6057, E. faecalis ATCC 29212, Bacillus subtilis ATCC 6633; (2) Gram-negative bacteria from Enterobacteriales order: Klebsiella pneumoniae ATCC 13883, Escherichia coli ATCC 25922, Enterobacter cloacae DSM 6234, Proteus mirabilis ATCC 12453, Serratia marcescens ATCC 13880; (3) Gram-negative non-fermentative rods: Acinetobacter baumannii ATCC 19606, Pseudomonas aeruginosa ATCC 27853, Stenotrophomonas maltophilia ATCC 12714, S. maltophilia ATCC 13637, Burkholderia cepacia ATCC 25416, Bordetella bronchiseptica ATCC 4617; (4) yeasts: Candida albicans ATCC 90028, C. krusei ATCC 6258, C. parapsilosis ATCC 22019, C. tropicalis (Castellani) Berkhout ATCC 750, C. tropicalis IBA 171, C. guilliermondii IBA 155, and Saccharomyces cerevisiae ATCC 9763. Moreover, 5 clinical strains of methicillin-resistant S. aureus were also included: NMI 664 K, NMI 1576 K, NMI 1712 K, NMI 1991 K, and NMI 2541 K. All strains were stored at −80 °C. Prior to testing, each bacterial strain was subcultured twice on tryptic soy agar TSA (bioMerieux) medium and yeast strains on Sabouraud dextrose agar (bioMerieux) for 24–48 h at 30 °C to ensure viability. The antimicrobial activity was evaluated as previously described[26] by the disc-diffusion method and the MIC determination assays according to the EUCAST (ref. [71] and [72]) and CLSI (ref. [53] and [73]) recommendations. Assessment of bactericidal (MBC) and fungicidal (MFC) activities was performed according to the CLSI recommendations.[54,74] The following reference agents were used: fluconazole (in the case of fungi), linezolid (for Gram-positive bacteria), and nitrofurantoin (for Gram-negative rods). The new benzosiloxaboroles were dissolved in DMSO (Sigma).

The test system of series [7] is Gram-negative rods. The series is described as follows: Antibacterial activity against Gram-negative rods with or without PAβN (text summaries). The format is cell-based. Particulars: Gram-negative rods. The protocol: as §2, with “The following reference agents were used: fluconazole (in the case of fungi), linezolid (for Gram-positive bacteria), and nitrofurantoin (for Gram-negative rods).” left out
Considering that the MDR efflux pumps often contribute to Gram-negative rod resistance, the MIC values of studied agents, with or without the pump inhibitor, PAβN (20 μg mL^−1) (Sigma), were determined.[75] The MIC was determined using Mueller–Hinton II broth medium (MHB) (Becton Dickinson) by the broth microdilution method, according to the CLSI guideliness.[53] To minimize the influence of PAβN on the destabilization of bacterial cell covers, the tests were conducted in the presence of 1 mM MgSO4 (Sigma).[76] At least a 4-fold reduction in the MIC value after the addition of PAβN was considered significant.[56,77]

Setting [8] is: both MSSA and MRSA strains, read-out: MIC values against Staphylococcus aureus.
Where [9] appears, read: MRSA, read-out: MBC (first MBC where Eagle effect).
Setting [10] is: MRSA, read-out: second MBC (Eagle effect).

≈ marks a conversion by molar mass, not a printed value. Where two headings read alike, the source gives them in different places.

For orientation: pKa means the negative logarithm of the acid dissociation constant. Read a low pKa as a group that gives up its proton readily. As usually defined, the MBC is the lowest tested concentration that kills the bacteria rather than only halting them. By MIC is commonly meant the lowest concentration that inhibits growth of the organism. With `C[Si]1(C)OB(O)c2cc(F)c(SCCS(=O)(=O)c3ccccc3)c(F)c21` [Compound 20, 5,7-Difluoro-1,1-dimethyl-6-((2-(phenylsulfonyl)ethyl)thio)benzo[c][1,2,5]oxasilaborol-3(1H)-ol], in series [1] (MeOH/H2O (1:1 v/v) solution), the pKa was determined as 5.7. The MBC in series [2] (NMI 1576 K MRSA, read-out: MBC (first MBC where Eagle effect)) worked out at 12.5 µg/mL (≈ 30.2 µM); in series [2] (NMI 1576 K MRSA, read-out: second MBC (Eagle effect)) it was 400 µg/mL (≈ 965 µM); in series [3] (NMI 1712 K MRSA, read-out: MBC (first MBC where Eagle effect)) it was 12.5 µg/mL (≈ 30.2 µM); in series [3] (NMI 1712 K MRSA, read-out: second MBC (Eagle effect)), 400 µg/mL (≈ 965 µM); in series [4] (NMI 2541 K MRSA, read-out: MBC (first MBC where Eagle effect)), 25 µg/mL (≈ 60.3 µM); in series [4] (NMI 2541 K MRSA, read-out: second MBC (Eagle effect)) it was 400 µg/mL (≈ 965 µM). The MBC in series [5] (NMI 664 K MRSA, read-out: MBC (first MBC where Eagle effect)) was 12.5 µg/mL (≈ 30.2 µM); in series [5] (NMI 664 K MRSA, read-out: second MBC (Eagle effect)), 400 µg/mL (≈ 965 µM). The MIC in series [2] (NMI 1576 K MRSA, read-out: MIC) was 6.25 µg/mL (≈ 15.1 µM); in series [3] (NMI 1712 K MRSA, read-out: MIC), 6.25 µg/mL (≈ 15.1 µM); in series [4] (NMI 2541 K MRSA, read-out: MIC) it was 6.25 µg/mL (≈ 15.1 µM); in series [5] (NMI 664 K MRSA, read-out: MIC) it was 6.25 µg/mL (≈ 15.1 µM); in series [6] (setting [8]) it was 1.56 to 12.5 µg/mL (≈ 3.77 to 30.2 µM); in series [6] (standard and five clinical MRSA strains (Table 4), read-out: MIC (MRSA)), 3.12 to 6.25 µg/mL (≈ 7.53 to 15.1 µM). Also, in series [6], the “Eagle effect (paradoxical growth) during MBC determination” value is listed as “Eagle effect”. Besides, the “efflux assay result (MIC with PAβN)” value in series [7] was “actively extruded from bacterial cells”.

`CCOP(=O)(OCC)Sc1c(F)cc2c(c1F)[Si](C)(C)OB2O` [Compound 24, S-(5,7-Difluoro-3-hydroxy-1,1-dimethyl-1,3-dihydrobenzo[c][1,2,5]oxasilaborol-6-yl) O,O-diethyl phosphorothioate] showed a pKa in series [1] of 4.9. Moreover, the MIC in series [2] (MRSA) is 6.25 µg/mL (≈ 16.4 µM); in series [3] (MRSA), 12.5 µg/mL (≈ 32.7 µM); in series [4] (MRSA), 12.5 µg/mL (≈ 32.7 µM); in series [5] (MRSA) it was 6.25 µg/mL (≈ 16.4 µM); in series [6] (setting [8]), 1.56 to 12.5 µg/mL (≈ 4.08 to 32.7 µM). The MBC in series [2] (setting [9]) was 12.5 µg/mL (≈ 32.7 µM); in series [2] (setting [10]), 400 µg/mL (≈ 1050 µM); in series [3] (setting [9]) it was 25 µg/mL (≈ 65.4 µM); in series [3] (setting [10]), above 400 µg/mL; in series [4] (setting [9]), 12.5 µg/mL (≈ 32.7 µM); in series [4] (setting [10]), above 400 µg/mL. For the same compound, the MBC in series [5] (setting [9]) is 25 µg/mL (≈ 65.4 µM); in series [5] (setting [10]), above 400 µg/mL. The “Eagle effect (paradoxical growth) during MBC determination” value in series [6] was “Eagle effect”.
